# According to ChEMBL document CHEMBL1201862, “PubChem BioAssay data set” (2004):
#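 Following 48 hours of exposure in 96-well plates, responses at five concentrations were used to interpolate endpoints linearly. GI50 is the concentration that inhibits growth by half.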 Activity calls are given as the source filed them. No stated cut-off is given here; in the data, active = GI50 up to about 1.1 µM and inactive = higher.
# Columns and labels:
# Experiment in all cases: growth of human tumour cells (NCI), 48 h
# 786-0 = test system: 786-0
# A498 = test system: A498
# A549 = test system: A549
# ACHN = test system: ACHN
# BT-549 = test system: BT-549
# CAKI-1 = test system: CAKI-1
# CCRF-CEM = test system: CCRF-CEM
# COLO 205 = test system: COLO 205
# DLD-1 = test system: DLD-1
# DMS-114 = test system: DMS-114
# DU-145 = test system: DU-145
# EKVX = test system: EKVX
# HCT-116 = test system: HCT-116
# HCT-15 = test system: HCT-15
# HL-60 = test system: HL-60
# HOP-62 = test system: HOP-62
# HOP-92 = test system: HOP-92
# HT-29 = test system: HT-29
# Hs-578T = test system: Hs-578T
# IGROV-1 = test system: IGROV-1
# K562 = test system: K562
# KM-20L2 = test system: KM-20L2
# KM12 = test system: KM12
# LOX IMVI = test system: LOX IMVI
# M14 = test system: M14
# M19-MEL = test system: M19-MEL
# MCF7 = test system: MCF7
# MDA-MB-231 = test system: MDA-MB-231
# MDA-MB-435 = test system: MDA-MB-435
# MDA-N = test system: MDA-N
# MOLT-4 = test system: MOLT-4
# Malme-3M = test system: Malme-3M
# NCI-H226 = test system: NCI-H226
# NCI-H23 = test system: NCI-H23
# NCI-H460 = test system: NCI-H460
# NCI-H522 = test system: NCI-H522
# NCI/ADR-RES = test system: NCI/ADR-RES
# OVCAR-3 = test system: OVCAR-3
# OVCAR-4 = test system: OVCAR-4
# OVCAR-5 = test system: OVCAR-5
# OVCAR-8 = test system: OVCAR-8
# PC-3 = test system: PC-3
# RPMI-8226 = test system: RPMI-8226
# RXF 393 = test system: RXF 393
# SF-268 = test system: SF-268
# SF-295 = test system: SF-295
# SF-539 = test system: SF-539
# SK-MEL-28 = test system: SK-MEL-28
# SK-MEL-2 = test system: SK-MEL-2
# SK-MEL-5 = test system: SK-MEL-5
# SK-OV-3 = test system: SK-OV-3
# SN12C = test system: SN12C
# SNB-19 = test system: SNB-19
# SNB-75 = test system: SNB-75
# SR = test system: SR
# SW-620 = test system: SW-620
# T47D = test system: T47D
# TK-10 = test system: TK-10
# U-251 = test system: U-251
# UACC-257 = test system: UACC-257
# UACC-62 = test system: UACC-62
# UO-31 = test system: UO-31
# XF498 = test system: XF498
smiles,measurement,setting,value
COC1C(O)=C2C(=O)O/C(C)=C/C=C/C=C/C=C\CC(c3ccccc3)NC(=O)\C=C/C=C\C=C\C=C\[C@@]2(C)[C@@H]1O (stereo partly drawn),GI50,786-0,17 nM (active)
same,GI50,A498,12.9 nM (active)
same,GI50,A549,< 10 nM (active)
same,GI50,ACHN,< 10 nM (active)
same,GI50,BT-549,< 10 nM (active)
same,GI50,CAKI-1,< 20.3 nM (active)
same,GI50,CCRF-CEM,< 10 nM (active)
same,GI50,COLO 205,10.4 nM (active)
same,GI50,DLD-1,< 10 nM (active)
same,GI50,DMS-114,24.9 nM (active)
same,GI50,DU-145,11.7 nM (active)
same,GI50,EKVX,35.7 nM (active)
same,GI50,HCT-116,< 10 nM (active)
same,GI50,HCT-15,< 10 nM
same,GI50,HL-60,< 10 nM (active)
same,GI50,HOP-62,< 33.4 nM (active)
same,GI50,HOP-92,< 10 nM (active)
same,GI50,HT-29,< 10 nM (active)
same,GI50,Hs-578T,< 10 nM (active)
same,GI50,IGROV-1,< 21.1 nM (active)
same,GI50,K562,< 10 nM (active)
same,GI50,KM-20L2,< 10 nM (active)
same,GI50,KM12,< 14.6 nM (active)
same,GI50,LOX IMVI,17.6 nM (active)
same,GI50,M14,< 37.1 nM (active)
same,GI50,M19-MEL,53.8 nM (active)
same,GI50,MCF7,< 10 nM (active)
same,GI50,MDA-MB-231,< 10 nM (active)
same,GI50,MDA-MB-435,< 10 nM (active)
same,GI50,MDA-N,33 nM (active)
same,GI50,MOLT-4,< 18.1 nM (active)
same,GI50,Malme-3M,< 22.3 nM (active)
same,GI50,NCI-H226,17.5 nM (active)
same,GI50,NCI-H23,14.4 nM (active)
same,GI50,NCI-H460,< 10 nM (active)
same,GI50,NCI-H522,< 10 nM (active)
same,GI50,NCI/ADR-RES,< 10 nM (active)
same,GI50,OVCAR-3,< 18.9 nM (active)
same,GI50,OVCAR-4,44.4 nM (active)
same,GI50,OVCAR-5,23.4 nM (active)
same,GI50,OVCAR-8,15.7 nM (active)
same,GI50,PC-3,< 10 nM (active)
same,GI50,RPMI-8226,< 10 nM (active)
same,GI50,RXF 393,12.8 nM (active)
same,GI50,SF-268,< 28 nM (active)
same,GI50,SF-295,< 10 nM (active)
same,GI50,SF-539,< 10 nM (active)
same,GI50,SK-MEL-28,15.5 nM (active)
same,GI50,SK-MEL-2,< 21.8 nM (active)
same,GI50,SK-MEL-5,39.5 nM (active)
same,GI50,SK-OV-3,< 21 nM (active)
same,GI50,SN12C,98.6 nM (active)
same,GI50,SNB-19,< 10 nM (active)
same,GI50,SNB-75,< 10 nM (active)
same,GI50,SR,< 12.5 nM (active)
same,GI50,SW-620,< 10 nM (active)
same,GI50,T47D,23.9 nM (active)
same,GI50,TK-10,< 36.1 nM (active)
same,GI50,U-251,< 10 nM (active)
same,GI50,UACC-257,< 12.9 nM (active)
same,GI50,UACC-62,67.5 nM (active)
same,GI50,UO-31,< 16.1 nM (active)
same,GI50,XF498,21.3 nM (active)
